Results from patent publication US11344559B2, “PI3KGAMMA inhibitors” (The Regents of the University of California, priority 2019, dated 2022).

Columns and labels:
Type in all cases: cell-based
[1] = test system: IL12b protein levels; assay: IL12b protein expression (ELISA) after M1 polarization with bulk synthesized compounds; conditions: 10 micromolar compound 1 h before IFNgamma+LPS (M1) polarization, supernatants 24 h post-stimulation, read-out: IL12B protein expression (Percent of Control)
Procedure: Compounds with the highest activity levels in the primary, secondary and tertiary screening assays were resynthesized in bulk and then tested for their effects on protein expression of inflammatory cytokines after M1 (IFNg+LPS) macrophage polarization. Bone marrow derived macrophages were plated into 12 well plates at d7 post-harvest and incubated for 1 h with 10 micromolar compound prior to polarization in the presence of bulk synthesized compounds 1-14. Cells were then polarized by the addition of either IFNgamma+LPS (M1) and cell supernatants were harvested 24 h post-stimulation. Methods of inducing macrophage polarization are known in the art, e.g., as described in Mosser et al., Curr. Protoc. Immunol. 2008 November; Chapter 14:Unit 14.2. doi: 10.1002/0471142735.im1402s83. After 24 h, cell supernatants were removed and screened for IL12b protein levels using an enzyme linked immunosorbent assay (ELISA). Increases in IL12b protein levels induced by compounds were recorded as percent increase in IL12b protein expression compared to IL12b expression in the absence of compounds.

[2] = test system: CCL2 protein levels; assay: Primary screening: CCL2 protein ELISA in M1 polarized bone marrow derived macrophages; conditions: Z score of CCL2 protein (ELISA); 1 μM compound, 24 h, IFNg+LPS (M1) polarized bone marrow derived macrophages
Procedure: (§1) Primary screening was performed on 507 compounds identified by the above-described computational screening. Bone marrow derived macrophages were plated into 96 well plates at d7 post-harvest and incubated with 1 μM compound and polarization reagents for 24 h. Primary screening was performed on cells polarized with interferon gamma (IFNg)+Lipopolysaccharide (LPS) (M1 polarization). Methods of inducing macrophage polarization are known in the art, e.g., as described in Mosser et al., Curr. Protoc. Immunol. 2008 November; Chapter 14:Unit 14.2. doi: 10.1002/0471142735.im1402s83. After 24 h, cell supernatants were removed and screened for IL12b and CCL2 protein levels using an enzyme linked immunosorbent assay (ELISA). Additionally, viability of polarized macrophages incubated with compounds was measured using an MTT assay, a colorimetric assay that measures cell metabolic activity by quantifying NAD(P)H-dependent cellular oxidoreductase reduction of the tetrazolium dye MTT 3-(4,5-dimethylthiazol-2-yl)-2,5-diphenyltetrazolium bromide to its insoluble purple colored formazan. Compounds that increased IL12b protein levels or decreased CCL2 protein levels and reduced viability less than 10% were selected for secondary screening. Secondary screening was performed as described for primary screening with a subset of 141 of the original compounds.

[3] = test system: IL12b protein levels; assay: Secondary screening: IL12b protein ELISA in M1 polarized bone marrow derived macrophages; conditions: Z score of IL12b protein (ELISA); 1 μM compound, 24 h, IFNg+LPS (M1) polarized bone marrow derived macrophages
Procedure: as §1

[4] = test system: CCL2 protein levels; assay: Secondary screening: CCL2 protein ELISA in M1 polarized bone marrow derived macrophages; conditions: Z score of CCL2 protein (ELISA); 1 μM compound, 24 h, IFNg+LPS (M1) polarized bone marrow derived macrophages
Procedure: as §1

[5] = test system: IL12b protein levels; assay: Primary screening: IL12b protein ELISA in M1 polarized bone marrow derived macrophages; conditions: Z score of IL12b protein (ELISA); 1 μM compound, 24 h, IFNg+LPS (M1) polarized bone marrow derived macrophages
Procedure: as §1

[6] = test system: TGF-beta expression; assay: RNA screening: TGF-beta expression in M2 (IL-4) polarized macrophages, quantitative RT-PCR; design: key: −: significant decrease in mRNA vs control (mRNA levels above 50% of control); −−: significant decrease in mRNA vs control (mRNA levels below 50% of control); +: significant increase in mRNA vs control; =: no significant change vs control; conditions: mRNA vs control; 1 μM compound 1 h before IL-4 (M2) polarization, mRNA harvested 6 h post-stimulation
Procedure: (§2) Compounds with the highest activity levels in the primary and secondary screening assays were tested for their effects on transcription of inflammatory cytokines after M1 (IFNg+LPS) and M2 (IL-4) macrophage polarization. Bone marrow derived macrophages were plated into 12 well plates at d7 post-harvest and incubated for 1 h with 1 μM compound prior to polarization. Cell were then polarized by the addition of either IFNgamma+LPS (M1) or IL-4 (M2) and mRNA was harvested 6 h post-stimulation. Quantitative RT-PCR was used to determine the levels of IL-1beta expression in M1 polarized macrophages and of Arginase-1 and TGF-beta expression in M2 polarized macrophages. Compounds were selected from RNA screening that increased IL-1beta expression or decreased Arginase-1 or TGF-beta expression.

[7] = test system: Arginase-1 expression; assay: RNA screening: Arginase-1 expression in M2 (IL-4) polarized macrophages, quantitative RT-PCR; conditions: Macrophage; mRNA vs control; 1 μM compound 1 h before IL-4 (M2) polarization, mRNA harvested 6 h post-stimulation; read-out: RNA Screening IL-4 Arg 1
Procedure: as §2

[8] = test system: IL-1beta expression; assay: RNA screening: IL-1beta expression in M1 (IFNg+LPS) polarized macrophages, quantitative RT-PCR; design: key: −: significant decrease in mRNA vs control (mRNA levels above 50% of control); −−: significant decrease in mRNA vs control (mRNA levels below 50% of control); +: significant increase in mRNA vs control; =: no significant change vs control; conditions: mRNA vs control; 1 μM compound 1 h before IFNgamma+LPS (M1) polarization, mRNA harvested 6 h post-stimulation
Procedure: as §2

| SMILES | activity at 10 µM [1] [%] | Primary Screen ZCCL2 [2] | Secondary Screen ZIL12b [3] | Secondary Screen ZCCL2 [4] | Primary Screen ZIL12b [5] | RNA Screening IL-4 Tgfb [6] | mrna remaining at 1 µM [7] [%] | RNA Screening Ifng + LPS Il1b [8] |
| --- | --- | --- | --- | --- | --- | --- | --- | --- |
| CNc1ncccc1C(=O)N1CCC2(CC1)CC(C(=O)O)N(C)C2 (stereo not drawn) [Compound 14, 2-methyl-8-{[2-(methylamino)-3-pyridinyl]carbonyl}-2,8-diazaspiro[4.5]decane-3-carboxylic acid] | 122 | – | – | – | – | – | – | – |
| CCCn1cc(NC(=O)NCc2nn(C)c3ccc(C)cc23)nn1 [Compound 1, N-[(1,5-dimethyl-1H-indazol-3-yl)methyl]-N′-(1-propyl-1H-1,2,3-triazol-4-yl)urea] | 134 | −1.85 | 1.05 | −0.72 | 0.93 | – | – | – |
| CC(C)NC(=O)NCC1CCCN(Cc2ccc3c(c2)OCCO3)C1 (stereo not drawn) [Compound 6, N-{[1-(2,3-dihydro-1,4-benzodioxin-6-ylmethyl)piperidin-3-yl]methyl}-N′-isopropylurea] | 120 | 0.94 | 2.4 | 0.16 | 1.96 | − (significant decrease in mRNA vs control (mRNA levels above 50% of control)) | > 50 | + |
| CCc1cc(NCCc2csc(N)n2)n2nc(C)c(C)c2n1 [Compound 4, N-[2-(2-amino-1,3-thiazol-4-yl)ethyl]-5-ethyl-2,3-dimethylpyrazolo[1,5-a]pyrimidin-7-amine] | 92 | 1.08 | 0.58 | −1.61 | 1.46 | – | – | – |
| CC(=O)N1CCCn2nc(CNc3nc4ccccc4s3)cc2C1 [Compound 5, N-[(5-acetyl-5,6,7,8-tetrahydro-4H-pyrazolo[1,5-a][1,4]diazepin-2-yl)methyl]-1,3-benzothiazol-2-amine] | 127 | 1.04 | 0.72 | −1.33 | 1.64 | – | – | – |
| CC(=O)N1CCN(Cc2cnn(-c3ccccc3Cl)c2)CC(O)C1 (stereo not drawn) [Compound 10, 1-acetyl-4-{[1-(2-chlorophenyl)-1H-pyrazol-4-yl]methyl}-1,4-diazepan-6-ol] | 121 | −1.59 | 1.64 | −0.36 | 0.55 | −− (significant decrease in mRNA vs control (mRNA levels below 50% of control)) | < 50 | = |
| CCc1n[nH]c(SCC(=O)NCCC(=O)Nc2nccs2)n1 [Compound 3, 3-({[(3-ethyl-1H-1,2,4-triazol-5-yl)thio]acetyl}amino)-N-1,3-thiazol-2-ylpropanamide] | – | – | 1.56 | 1.33 | – | = | > 50 | = |
| COc1cccc2ccc(-c3ccc(N)nc3)nc12 [Compound 2, 5-(8-methoxyquinolin-2-yl)pyridin-2-amine] | – | – | 0.81 | 0.8 | – | − (significant decrease in mRNA vs control (mRNA levels above 50% of control)) | > 50 | + |
| CCC(=O)N1CCC(c2ccc3c(c2)OCO3)C(O)C1 (stereo not drawn) [Compound 15, 1-(4-(benzo[d][1,3]dioxol-5-yl)-3-hydroxypiperidin-1-yl)propan-1-one] | – | – | 0.25 | −0.95 | – | – | < 50 | + |
| CCc1n[nH]c(SCC(=O)N2CCC3(CC2)CC(C(=O)O)N(C)C3)n1 (stereo not drawn) [Compound 12, 8-{[(3-ethyl-1H-1,2,4-triazol-5-yl)thio]acetyl}-2-methyl-2,8-diazaspiro[4.5]decane-3-carboxylic acid] | 133 | – | – | – | – | – | – | – |
| O=C(O)c1nc[nH]c1C(=O)N1CCN(c2ccccn2)CC1 [Compound 9, 5-[(4-pyridin-2-ylpiperazin-1-yl)carbonyl]-1H-imidazole-4-carboxylic acid] | 131 | −5.07 | 0.92 | −1.53 | 0.54 | + | > 50 | + |
| O=C(O)CCc1cc2n(n1)CCCN(Cc1c[nH]nc1C(=O)O)C2 [Compound 16, 4-((2-(2-carboxyethyl)-7,8-dihydro-4H-pyrazolo[1,5-a][1,4]diazepin-5(6H)-yl)methyl)-1H-pyrazole-3-carboxylic acid] | – | – | 0.56 | −0.84 | – | – | < 50 | + |
| OCCc1cn(C2CCN(Cc3cccnc3)CC2)nn1 [Compound 11, 2-{1-[1-(3-pyridinylmethyl)-4-piperidinyl]-1H-1,2,3-triazol-4-yl}ethanol] | 127 | −2.99 | 2.04 | −1.46 | −1.17 | − (significant decrease in mRNA vs control (mRNA levels above 50% of control)) | < 50 | + |
| CC(=O)N1CC2(CCN(S(C)(=O)=O)CC2)CC1C(=O)O (stereo not drawn) [Compound 8, 2-acetyl-8-(methylsulfonyl)-2,8-diazaspiro[4.5]decane-3-carboxylic acid] | 118 | −3.6 | 0.74 | −1.79 | 0.13 | – | – | – |
| CN(C)c1cccc(C(=O)N2CCC3(CC2)CC(C(=O)O)N(C)C3)c1 (stereo not drawn) [Compound 13, 8-[3-(dimethylamino)benzoyl]-2-methyl-2,8-diazaspiro[4.5]decane-3-carboxylic acid] | 125 | – | – | – | – | – | – | – |
| CC(O)c1cn(CC2CCN(C(=O)c3cscn3)CC2)nn1 (stereo not drawn) [Compound 7, 1-(1-{[1-(1,3-thiazol-4-ylcarbonyl)-4-piperidinyl]methyl}-1H-1,2,3-triazol-4-yl)ethanol] | 114 | −1.62 | 1.58 | −1.5 | 0.38 | −− (significant decrease in mRNA vs control (mRNA levels below 50% of control)) | < 50 | + |
